ChEMBL document CHEMBL4308841, “Synthesis, in vitro antiproliferative activity, and kinase inhibitory effects of pyrazole-containing diarylureas and diarylamides” (Eur J Med Chem, 2018)

Experiments:
SF-295 = assay: Growth inhibition of human SF295 cells assessed as cell growth at 0.01 uM incubated for 48 hrs by sulforhodamine B assay relative to control; format: functional; conditions: SF-295, 48 h, read-out: Activity
786-0 = assay: Growth inhibition of human 786-0 cells assessed as cell growth at 1 uM incubated for 48 hrs by sulforhodamine B assay relative to control; format: functional; conditions: 786-0, 48 h, read-out: Activity
MCF7 [1] = assay: Growth inhibition of human MCF7 cells assessed as cell growth at 0.01 uM incubated for 48 hrs by sulforhodamine B assay relative to control; format: functional; conditions: MCF7, 48 h, read-out: Activity
KM12 [2] = assay: Growth inhibition of human KM12 cells assessed as cell growth at 0.01 uM incubated for 48 hrs by sulforhodamine B assay relative to control; format: functional; conditions: KM12, 48 h, read-out: Activity
IGROV-1 = assay: Growth inhibition of human IGROV1 cells assessed as cell growth at 1 uM incubated for 48 hrs by sulforhodamine B assay relative to control; format: functional; conditions: IGROV-1, 48 h, read-out: Activity
SW-620 = assay: Growth inhibition of human SW620 cells assessed as cell growth at 0.1 uM incubated for 48 hrs by sulforhodamine B assay relative to control; format: functional; conditions: SW-620, 48 h, read-out: Activity
NCI-H226 = assay: Growth inhibition of human NCI-H226 cells assessed as cell growth at 0.1 uM incubated for 48 hrs by sulforhodamine B assay relative to control; format: functional; conditions: NCI-H226, 48 h, read-out: Activity
UO-31 = assay: Growth inhibition of human UO31 cells assessed as cell growth at 1 uM incubated for 48 hrs by sulforhodamine B assay relative to control; format: functional; conditions: UO-31, 48 h, read-out: Activity
COLO 205 = assay: Growth inhibition of human COLO205 cells assessed as cell growth at 100 uM incubated for 48 hrs by sulforhodamine B assay relative to control; format: functional; conditions: COLO 205, 48 h, read-out: Activity
KM12 [3] = assay: Growth inhibition of human KM12 cells assessed as cell growth at 100 uM incubated for 48 hrs by sulforhodamine B assay relative to control; format: functional; conditions: KM12, 48 h, read-out: Activity
T47D [4] = assay: Growth inhibition of human T47D cells assessed as cell growth at 100 uM incubated for 48 hrs by sulforhodamine B assay relative to control; format: functional; conditions: read-out: Activity
Hs-578T = assay: Growth inhibition of human Hs578T cells assessed as cell growth at 1 uM incubated for 48 hrs by sulforhodamine B assay relative to control; format: functional; conditions: read-out: Activity
SN12C = assay: Growth inhibition of human SN12C cells assessed as cell growth at 1 uM incubated for 48 hrs by sulforhodamine B assay relative to control; format: functional; conditions: read-out: Activity
HCT-15 [5] = assay: Growth inhibition of human HCT15 cells incubated for 48 hrs by sulforhodamine B assay; format: functional, cell-based; conditions: HCT-15, 48 h
OVCAR-5 = assay: Growth inhibition of human OVCAR5 cells assessed as cell growth at 0.01 uM incubated for 48 hrs by sulforhodamine B assay relative to control; format: functional; conditions: OVCAR-5, 48 h, read-out: Activity
BT-549 = assay: Growth inhibition of human BT549 cells assessed as cell growth at 100 uM incubated for 48 hrs by sulforhodamine B assay relative to control; format: functional; conditions: BT-549, 48 h, read-out: Activity
OVCAR-3 [6] = assay: Growth inhibition of human OVCAR3 cells assessed as cell growth at 0.1 uM incubated for 48 hrs by sulforhodamine B assay relative to control; format: functional; conditions: OVCAR-3, 48 h, read-out: Activity
MDA-MB-435 = assay: Growth inhibition of human MDA-MB-435 cells assessed as cell growth at 0.1 uM incubated for 48 hrs by sulforhodamine B assay relative to control; format: functional; conditions: MDA-MB-435, 48 h, read-out: Activity
RPMI-8226 = assay: Growth inhibition of human RPMI8226 cells assessed as cell growth at 0.1 uM incubated for 48 hrs by sulforhodamine B assay relative to control; format: functional; conditions: RPMI-8226, 48 h, read-out: Activity
SF-539 = assay: Growth inhibition of human SF539 cells incubated for 48 hrs by sulforhodamine B assay; format: functional, cell-based; conditions: SF-539, 48 h
RXF 393 [7] = assay: Growth inhibition of human RXF393 cells assessed as cell growth at 0.1 uM incubated for 48 hrs by sulforhodamine B assay relative to control; format: functional; conditions: RXF 393, 48 h, read-out: Activity
OVCAR-3 [8] = assay: Growth inhibition of human OVCAR3 cells assessed as cell growth at 1 uM incubated for 48 hrs by sulforhodamine B assay relative to control; format: functional; conditions: OVCAR-3, 48 h, read-out: Activity
CCRF-CEM = assay: Growth inhibition of human CCRF-CEM cells assessed as cell growth at 0.01 uM incubated for 48 hrs by sulforhodamine B assay relative to control; format: functional; conditions: read-out: Activity
T47D [9] = assay: Growth inhibition of human T47D cells assessed as cell growth at 0.1 uM incubated for 48 hrs by sulforhodamine B assay relative to control; format: functional; conditions: read-out: Activity
OVCAR-4 = assay: Growth inhibition of human OVCAR4 cells assessed as cell growth at 1 uM incubated for 48 hrs by sulforhodamine B assay relative to control; format: functional; conditions: OVCAR-4, 48 h, read-out: Activity
MCF7 [10] = assay: Growth inhibition of human MCF7 cells incubated for 48 hrs by sulforhodamine B assay; format: functional, cell-based; conditions: MCF7, 48 h
HCT-15 [11] = assay: Growth inhibition of human HCT15 cells assessed as cell growth at 1 uM incubated for 48 hrs by sulforhodamine B assay relative to control; format: functional; conditions: HCT-15, 48 h, read-out: Activity
RXF 393 [12] = assay: Growth inhibition of human RXF393 cells assessed as cell growth at 100 uM incubated for 48 hrs by sulforhodamine B assay relative to control; format: functional; conditions: RXF 393, 48 h, read-out: Activity
LOX IMVI = assay: Growth inhibition of human LOXIMVI cells assessed as cell growth at 100 uM incubated for 48 hrs by sulforhodamine B assay relative to control; format: functional; conditions: read-out: Activity
K562 = assay: Growth inhibition of human K562 cells assessed as cell growth at 100 uM incubated for 48 hrs by sulforhodamine B assay relative to control; format: functional; conditions: K562, 48 h, read-out: Activity
SF-268 = assay: Growth inhibition of human SF268 cells assessed as cell growth at 0.1 uM incubated for 48 hrs by sulforhodamine B assay relative to control; format: functional; conditions: SF-268, 48 h, read-out: Activity
A498 = assay: Growth inhibition of human A498 cells assessed as cell growth at 100 uM incubated for 48 hrs by sulforhodamine B assay relative to control; format: functional; conditions: A498, 48 h, read-out: Activity
[13] = read-out: LC50 (the source's name)
[14] = read-out: pLC50 (the source's name) (converted)

Molecule `COc1cc(Cl)cc(-c2nn(-c3cccc(NC(=O)Nc4ccc(Cl)c(Cl)c4)c3)cc2-c2ccncc2)c1` has a growth at 0.01 µM (SF-295) of 87%, a growth at 1 µM (786-0) of 84% and a growth at 0.01 µM (MCF7 [1]) of 94%. The growth at 0.01 µM (KM12 [2]) was 96%, the growth at 1 µM (IGROV-1) was 102% and the growth at 0.1 µM (SW-620) was 97%. For the same molecule, the growth at 0.1 µM (NCI-H226) was 96%, the growth at 1 µM (UO-31) was 88% and the growth at 100 µM (COLO 205) was -100%. The growth at 100 µM (KM12 [3]) was -17%, the growth at 100 µM (T47D [4]) was -9% and the growth at 1 µM (Hs-578T) was 99%. The growth at 1 µM (SN12C) was 87%, the GI50 (HCT-15 [5]; read-out: GI50) was 2.51 µM and the CC50 (HCT-15 [5]; [13]) was over 100 µM. For the same molecule, the TGI (HCT-15 [5]; read-out: TGI) was 31.5 µM, the GI50 (HCT-15 [5]; read-out: pGI50 (converted)) was 2.51 µM and the CC50 (HCT-15 [5]; [14]) was over 100 µM. For the same molecule, the TGI (HCT-15 [5]; read-out: pTGI (converted)) was 31.6 µM, the growth at 0.01 µM (OVCAR-5) was 93% and the growth at 100 µM (BT-549) was -15%. For the same molecule, the growth at 0.1 µM (OVCAR-3 [6]) was 101%, the growth at 0.1 µM (MDA-MB-435) was 99% and the growth at 0.1 µM (RPMI-8226) was 100%. The GI50 (SF-539; read-out: GI50) was 2.5 µM, the CC50 (SF-539; [13]) was over 100 µM and the TGI (SF-539; read-out: TGI) was 13.2 µM. It also gave a GI50 (SF-539; read-out: pGI50 (converted)) of 2.57 µM, a CC50 (SF-539; [14]) of over 100 µM and a TGI (SF-539; read-out: pTGI (converted)) of 13.2 µM. For the same molecule, the growth at 0.1 µM (RXF 393 [7]) was 101%, the growth at 1 µM (OVCAR-3 [8]) was 61% and the growth at 0.01 µM (CCRF-CEM) was 97%. For the same molecule, the growth at 0.1 µM (T47D [9]) was 94%, the growth at 1 µM (OVCAR-4) was 83% and the GI50 (MCF7 [10]; read-out: GI50) was 2.56 µM. The LC50 (MCF7 [10]; read-out: LC50) was over 100 µM, the TGI (MCF7 [10]; read-out: TGI) was 13.2 µM and the GI50 (MCF7 [10]; read-out: pGI50 (converted)) was 2.57 µM. For the same molecule, the LC50 (MCF7 [10]; read-out: pLC50 (converted)) was over 100 µM, the TGI (MCF7 [10]; read-out: pTGI (converted)) was 13.2 µM and the growth at 1 µM (HCT-15 [11]) was 77%. The growth at 100 µM (RXF 393 [12]) was -43%, the growth at 100 µM (LOX IMVI) was -30% and the growth at 100 µM (K562) was 3%. It also gave a growth at 0.1 µM (SF-268) of 95%.

Molecule `O=C(Nc1cccc(-n2cc(-c3ccncc3)c(-c3cc(O)cc(Cl)c3)n2)c1)c1cc(C(F)(F)F)cc(C(F)(F)F)c1` has a growth at 0.01 µM (SF-295) of 92%, a growth at 1 µM (786-0) of 56% and a growth at 0.01 µM (MCF7 [1]) of 58%. The growth at 0.01 µM (KM12 [2]) was 96%, the growth at 1 µM (IGROV-1) was 103% and the growth at 0.1 µM (SW-620) was 98%. The growth at 0.1 µM (NCI-H226) was 95%, the growth at 1 µM (UO-31) was 71% and the growth at 100 µM (COLO 205) was -7%. The growth at 1 µM (Hs-578T) was 92%, the growth at 1 µM (SN12C) was 91% and the growth at 100 µM (A498) was -2%. It also gave a GI50 (HCT-15 [5]; read-out: GI50) of 2.5 µM, a CC50 (HCT-15 [5]; [13]) of over 100 µM and a TGI (HCT-15 [5]; read-out: TGI) of 14.7 µM. The GI50 (HCT-15 [5]; read-out: pGI50 (converted)) was 2.57 µM, the CC50 (HCT-15 [5]; [14]) was over 100 µM and the TGI (HCT-15 [5]; read-out: pTGI (converted)) was 14.8 µM. The growth at 0.01 µM (OVCAR-5) was 92%, the growth at 100 µM (BT-549) was -12% and the growth at 0.1 µM (OVCAR-3 [6]) was 102%. It also gave a growth at 0.1 µM (MDA-MB-435) of 95%, a growth at 0.1 µM (RPMI-8226) of 105% and a GI50 (SF-539; read-out: GI50) of 5.01 µM. It also gave a CC50 (SF-539; [13]) of over 100 µM, a TGI (SF-539; read-out: TGI) of 51.7 µM and a GI50 (SF-539; read-out: pGI50 (converted)) of 5.01 µM. The CC50 (SF-539; [14]) was over 100 µM, the TGI (SF-539; read-out: pTGI (converted)) was 51.3 µM and the growth at 0.1 µM (RXF 393 [7]) was 94%. For the same molecule, the growth at 1 µM (OVCAR-3 [8]) was 96%, the growth at 0.01 µM (CCRF-CEM) was 96% and the growth at 0.1 µM (T47D [9]) was 93%. The growth at 1 µM (OVCAR-4) was 101%, the GI50 (MCF7 [10]; read-out: GI50) was 2.55 µM and the LC50 (MCF7 [10]; read-out: LC50) was over 100 µM. It also gave a TGI (MCF7 [10]; read-out: TGI) of over 100 µM, a GI50 (MCF7 [10]; read-out: pGI50 (converted)) of 2.88 µM and an LC50 (MCF7 [10]; read-out: pLC50 (converted)) of over 100 µM. For the same molecule, the TGI (MCF7 [10]; read-out: pTGI (converted)) was over 100 µM, the growth at 1 µM (HCT-15 [11]) was 79% and the growth at 100 µM (RXF 393 [12]) was -50%. The growth at 100 µM (LOX IMVI) was -41%, the growth at 100 µM (K562) was 7% and the growth at 0.1 µM (SF-268) was 95%.
